Data published in patent US20070037800A1, “Method of treating neurological disorders using clotrimazole and derivatives thereof” (EnVivo Pharmaceuticals, Inc., priority 2005, published 2007).
Values joined by “and” are separate entries in the source; they are usually repeats but may differ in a detail not shown here. Identical values can stand only once.

How the values were obtained:
[1] = test system: HD model flies (elav-GAL4 UAS-htt128Q); test: Assay of locomotor activity (climbing speed) using the transgenic Drosophila HD model; type: in vivo; parameters: Early Speed Effect Size, Summary / Late Speed Effect Size, Summary / Early Speed Effect Size / Late Speed Effect Size / Early Speed Adj Value / Late Speed Adj Value / Early Speed Effect Size, combined campaigns / Late Speed Effect Size, combined campaigns: unit not given here; conditions: for Early Speed Effect Size, combined campaigns / Early Speed Percent TSA, combined campaigns / Late Speed Effect Size, combined campaigns / Late Speed Percent TSA, combined campaigns: drawing 84, drawing 89
Protocol: Female “activator” or “driver” flies were engineered to contain the neuronal specific drivers elav-GAL4 or nirvana-GAL4 in a heat shock-hid Y (phs-hidY or HS-hid+ on Y chomosome) background (Starz-Gaiano et al., 2001). The hid gene is a pro-apoptotic gene, which is expressed in this line by a heat inducible promoter. These flies can be heat shocked in bottles twice over 2 days for 2 hours to kill male larvae and thereby produce massive numbers of elav-GAL4 or nirvana-GAL4 virgin females.
For the mass production of males (either UAS-htt128Q[F27B]/UAS-htt128Q[F27B], the disease transgenes were moved into lines that contain an attached X-chromosome with the same phs-hid element (X^XPhs-hidY) used above. In this scheme the hid gene is present only in female flies and therefore is used to produce large numbers of male flies by heat shock. The massive collection of virgin female elav-GAL4 flies are crossed with the massive collection of males that contain the silent disease-transgene. Their progeny, the F1 generation, are the “assay flies” (e.g., elav-GAL4UAS-htt128Q[F27B]). These assay flies are robotically distributed into drugged assay vials.
The HD Drosophila model express exons 1 to 4 of the human huntingtin gene with 128Q repeats in exon 1. The construct was cloned into the Drosophila transformation vector, pUAST. These were then crossed to GAL4 driver lines that direct expression either to the eye (GMR-GAL4 promoter) or to neurons (elav-GAL4 promoter). […] Progressive degeneration of the photoreceptors was observed after several days of adult life. The properties of the HD128Q flies were consistent with those reported by others for two other strains in which exon-1 containing expanded repeats was expressed in the eye (Jackson et al., 1998; Steffan et al., 2001—US20040142859). To test the effects on motor function of the HD mutation, HD128Q lines were examined in which the transgene was expressed in all neurons. Motor function was assayed by tapping flies in a vial to the bottom and measuring the number of flies that are able to climb to a specified height within a specific length of time. When tapped to the bottom of a vial, wild-type flies rapidly climb to the top, where most of them remain. […] The decline in motor performance was progressive, leading to early death. […] The HD128Q model thus has a functional deficit that in its phenotypic and neuropathological characteristics appears to be related to that seen in the human disease. Moreover, as the deficit is quantifiable and reproducible, it is suitable for automated high-throughput screening.
Standard environmental conditions were followed to establish that different metrics detect differences between disease and control flies. A comparison of compound-treated HD flies and untreated HD flies was also included. The positive control compound tested was the Histone Deacetylase (HDAC) inhibitor Trichostatin-A (TSA).
In an assay run (typically corresponding to one day of an entire multi-day assay) the following process was followed. Each tube was dropped onto a surface, causing the flies to fall to the bottom of the tube and be subjected to impact shock stimulation. Their immediate negative geotaxis response to that event was thereafter captured in a 7.5 second movie. For each tube, this step was repeated five times, giving a total of five repeat videos per tube and run. The raw data for each video were analyzed and trajectories following the movements of individual flies in a tube were generated. The method for analyzing fly trajectories is described in published U.S. Patent Application 2004/0076318A1, which is hereby incorporated by reference in its entirety. The trajectories consisted of a list of x- and y-coordinates mapping out the positions of all the flies in the video, as well as measurements of size, orientation, length and width of the flies, with one list entry for every frame from when the fly started moving in one frame until it stopped in another. […]

[2] = test system: KA-induced lesion in C57B1/6N mice; conditions: intra-striatal KA, Cosi et al., 2004; cited from earlier work
[3] = food conc 100, days 8 to 10, vs DMSO carrier, single campaigns
[4] = food conc 200, campaign drawing 91, day range not given, late by column position
[5] = conc 100, days 1 to 7, campaigns drawing 83
[6] = conc 100, days 8 to 10, campaigns drawing 83
[7] = conc 300, days 1 to 7, campaigns drawing 80, drawing 83, drawing 85, drawing 88
[8] = conc 300, days 8 to 10, campaigns drawing 80, drawing 83, drawing 85, drawing 88
[9] = food conc 100 (unit not printed; b38: μM), days 1 to 7, single campaigns
[10] = food conc 100, days 8 to 10, single campaigns
[11] = conc 100, days 1 to 7, campaigns drawing 80, drawing 83, drawing 88
[12] = conc 100, days 8 to 10, campaigns drawing 80, drawing 83, drawing 88

Fc1ccc(C(c2ccccc2)(c2ccc(F)cc2)n2ccnc2)cc1
Early Speed Effect Size ([1]; food conc 50 (unit not printed; b38: μM), days 1 to 7, vs DMSO carrier, single campaigns): 0.31 | Early Speed Percent TSA ([1]; food conc 50, days 1 to 7, effect size as percentage of positive control TSA, single campaigns): 16.8% | Late Speed Percent TSA ([1]; food conc 50, days 8 to 10, effect size as percentage of TSA, single campaigns): 12.5% | Late Speed Effect Size ([1]; food conc 50, days 8 to 10, vs DMSO carrier, single campaigns): 0.33 | Early Speed Percent TSA ([1]; food conc 100, days 1 to 7, effect size as percentage of TSA, single campaigns): 56.8% | Early Speed Effect Size ([1]; food conc 100, days 1 to 7, vs DMSO carrier, single campaigns): 1.04 | Late Speed Percent TSA ([1]; food conc 100, days 8 to 10, effect size as percentage of TSA, single campaigns): 49.9% | Late Speed Effect Size [1, 3]: 1.32 | Early Speed Effect Size ([1]; food conc 200 (unit not given), campaign drawing 91, day range not given, early by column position): 1.23 | Early Speed Percent TSA ([1]; food conc 200, campaign drawing 91, day range not given, early by column position): 67.2% | Late Speed Effect Size [1, 4]: 0.8 | Late Speed Percent TSA [1, 4]: 30.2%

FC(F)(F)c1cccc(C(c2ccccc2)(c2ccccc2)n2ccnc2)c1 [1-(3-(TRIFLUOROMETHYL)TRITYL)IMIDAZOLE, 1-(3-(trifluoromethyl)trityl)imidazole]
Early Speed Effect Size, combined campaigns [1, 5]: −0.159 | Early Speed Percent TSA, combined campaigns [1, 5]: −4.3% | Late Speed Effect Size, combined campaigns [1, 6]: 0.344 | Late Speed Percent TSA, combined campaigns [1, 6]: 7.6% | Early Speed Effect Size, combined campaigns [1, 7]: 1.003 | Early Speed Percent TSA, combined campaigns [1, 7]: 45.6% | Late Speed Effect Size, combined campaigns [1, 8]: 1.798 | Late Speed Percent TSA, combined campaigns [1, 8]: 68.2% | Early Speed Adj Value [1, 9]: 10.37 and 10.38 and 10.47 | Late Speed Adj Value [1, 10]: 5.094 and 5.776 and 5.811 | Early Speed Adj Value ([1]; food conc 300 (unit not given), days 1 to 7, single campaigns): 11.11 and 10.33 (2×) and 10.9 and 11.1 and 11.02 | Late Speed Adj Value ([1]; food conc 300, days 8 to 10, single campaigns): 7.096 and 5.024 and 5.921 and 7.137 and 6.976 and 6.601 | Late Speed Effect Size ([1]; food conc 300, days 8 to 10, vs DMSO carrier, single campaigns): 2.88 and 1.62 and 1.96

Cl.FC(F)(F)c1cccc(C(c2ccccc2)(c2ccccc2)n2ccnc2)c1 [1-(3-(trifluoromethyl)trityl)imidazole hydrochloride]
Effect in Drosophila model of HD ([1]; vs carrier controls, metrics early speed (days 1-7) and late speed (days 8-10)): had therapeutic effect

c1ccc(C(c2ccccc2)(c2ccccc2)n2ccnc2)cc1 [1-triphenylmethyl imidazole]
Early Speed Effect Size, combined campaigns [1, 11]: 0.186 | Early Speed Percent TSA, combined campaigns [1, 11]: 9.6% | Late Speed Effect Size, combined campaigns [1, 12]: 0.179 | Late Speed Percent TSA, combined campaigns [1, 12]: 6.9% | Early Speed Adj Value [1, 9]: 10.62 and 9.998 and 10.71 and 11.18 and 10.51 and 10.31 | Early Speed Adj Value ([1]; food conc 100 (unit not printed; b38: μM), days 1 to 7, single campaigns, listed as 1-(triphenylmethyl)imidazole): 10.62 and 10.71 | Late Speed Adj Value [1, 10]: 5.547 and 5.811 and 4.932 and 5.407 and 5.092 and 5.877 | Late Speed Adj Value ([1]; food conc 100, days 8 to 10, single campaigns, listed as 1-(triphenylmethyl)imidazole): 5.81 and 5.41 | Late Speed Effect Size [1, 3]: 0.86 and 0.62

NC(=O)c1ccccc1 [Benzamide]
KA-induced decreases in striatal levels of NAD+ and ATP [2]: partially prevented | KA-induced lesions and astrogliosis [2]: partially prevented

Clc1ccccc1C(c1ccccc1)(c1ccccc1)N1CCOCC1 [Example 1(f), 4-[(2-Chlorophenyl)-diphenylmethyl]-morpholine]
melting point: 205 °C

FC(F)(F)c1cccc(C(c2ccccc2)(c2ccccc2)N2CCOCC2)c1 [Example 1(g), 4-[(3-Trifluoromethylphenyl)-diphenylmethyl]-morpholine]
melting point: 158 to 160 °C
